Experiments:
Assay type in all cases: in vivo
[1] = tested on: old mice (male C57BL6/Njcl); assay: Open field test; details: ManNAc 5 mg/ml in tap water ad libitum
Method: (§1) • 1) Object and place recognition task experiments were performed on male C57BL6/Njcl mice in three groups. Outline of the experiments is shown in FIG. 1. • Old control group: Old mice (reared from 47 to 66 weeks of age, n=10) were allowed to drink tap water ad libitum. • Old ManNAc recipient group: Old mice (reared from 47 to 66 weeks of age, n=10) were allowed to drink tap water with ManNAc (5 mg/ml) dissolved therein ad libitum. • Young control group: Young mice (reared from 8 to 18 weeks of age, n=10) were allowed to drink tap water ad libitum. • 2) Experimental procedures: An open field test was performed to examine the tendency toward anxiety and locomotor activity, and this was followed by place recognition task and object recognition task in accordance with conventional methods (see FIG. 2). • 3) Experimental results (FIGS. 3 and 4)
Open field test (FIG. 3): Moving distance in an unfamiliar planar space was compared between the old mice and the young mice.

[2] = tested on: old mice (male C57BL6/Njcl); assay: Place recognition task; details: ManNAc 5 mg/ml in tap water ad libitum, paired t-test, p<0.05
Method: as §1
(§2) When ManNAc was administered to the old mice (FIG. 4C), the exploratory behavior times for the new place (paired t-test, p<0.05) and the new object (paired t-test, p<0.001) normalized in all tasks; a capability of recognition memory equivalent to that of the young mice was shown.

[3] = tested on: old mice (male C57BL6/Njcl); assay: Object recognition task; details: ManNAc 5 mg/ml in tap water ad libitum, paired t-test, p<0.001
Method: as §1, §2

middle-aged mice [4] = assay: Sleep analysis by electroencephalograms and electromyograms (aging-related sleep disorders)
From the text: (§3) Mice are awake during active time in the dark phase and conversely cease their activities and have a sleep in the light phase. It is known that in aged mice, the wake-sleep rhythm is deranged to the extent of lighter sleep in the light phase and decreased activities during wake time in the dark phase. It is also known that the aging-related derangement of wake and sleep is related to hypothalamic activity and accompanied by elevated body temperatures and increased heart rates. Because these symptoms are similar to those in human patients in their middle age to senescence who complain of dissatisfaction with sleep, they serve as an appropriate model for examining the influences on sleep.
(§4) Middle-aged mice [three reared from 43 to 66 weeks of age under light-dark cycle conditions (12-hour light phase-12-hour dark phase)] were allowed to drink ManNAc solution (5 mg/ml tap water) ad libitum. During 1 week before and after the free access to the solution, […], body temperature, and locomotor activity were monitored over time using a telemeter. Also analyzed were electroencephalograms recorded during wake and sleep times in both the ManNAc non-ingestion period and the free-access period. To measure electroencephalograms and electromyograms, a mouse electroencephalogram transmitter (F20EET, Data Sciences) was implanted in each animal under anesthesia (pentobarbital, 30 mg/kg, i.v.), and electroencephalograms, electromyograms, body temperature, and locomotor activity were continuously recorded using ART (Data Sciences Company). The electroencephalograms thus obtained were analyzed using NeuroScore (Data Sciences Company), and the sleep events were classified into REM sleep and slow wave sleep. The lengths of each sleep stage were totaled and compared among the mice before and after administration and young mice.

middle-aged mice [5] = assay: Telemeter monitoring of heart rate, body temperature and locomotor activity; details: administration of ManNAc
From the text: as §3, §4

[6] = middle-aged mice receiving ManNAc, began to be observed on day 2 after administration

CC(=O)N[C@@H]1C(O)O[C@H](CO)[C@@H](O)[C@@H]1O (stereo partly drawn) [ManNAc, N-acetyl-D-mannosamine]
total motor activity [1]: without influencing total motor activity
rise in the tendency toward anxiety (time of stay in the central portion) ([1]; vs old control): tended to decrease slightly, but the difference was statistically insignificant
exploratory behavior time for the new place [2]: normalized
exploratory behavior time for the new object [3]: normalized
day after the start of administration on which the effect on sleep begins to be evident (middle-aged mice [4]; extension of REM sleep time, sleep-wake rhythm): 2 days
REM sleep (middle-aged mice [4]; [6]): increased
slow wave sleep (middle-aged mice [4]; [6]): decreased
wake time (middle-aged mice [4]; [6]): remarkably increased
Wake, daily percentage (middle-aged mice [4]; middle-aged mice, 4 days after administration, ManNAc 5 mg/ml tap water ad libitum (before administration 1.8)): 2.2%
REM sleep, daily percentage (middle-aged mice [4]; middle-aged mice, 4 days after administration, ManNAc 5 mg/ml tap water ad libitum (before administration 5.4)): 10.0%
Wake (major), daily percentage (middle-aged mice [4]; middle-aged mice, 4 days after administration, ManNAc 5 mg/ml tap water ad libitum (before administration 12.7)): 15.3%
Slow wave sleep, daily percentage (middle-aged mice [4]; middle-aged mice, 4 days after administration, ManNAc 5 mg/ml tap water ad libitum (before administration 80.0)): 72.5%
change in heart rate due to behavioral change (difference between the light and dark phases) (middle-aged mice [5]): became evident
difference in locomotor activity between the light and dark phases (middle-aged mice [5]): increased
body temperature (middle-aged mice [5]; non-active period): declined
